Measured values taken from patent US20060161001A1, “Substituted heterocyclic compounds and methods of use” (Amgen Inc., priority 2004, published 2006).

What follows are compounds tested on LPS induced TNF release (assay: THP1 cell assay (LPS induced TNF release)). Conditions: Homo sapiens, THP-1; THP1 cells, LPS induced TNF-α secretion, 3 h at 37° C.
Assay type: cell-based
Procedure: Lipopolysaccharide-Activated THP1 Cell TNF Production Assay
THP1 cells are resuspended in fresh THP1 media (RPMI 1640, 10% heat-inactivated FBS, 1XPGS, 1XNEAA, plus 30 μM OME) at a concentration of 1E6/mL. One hundred microliters of cells per well are plated in a polystyrene 96-well tissue culture. One microgram per mL of bacterial LPS is prepared in THP1 media and is transferred to the wells. Test compounds are dissolved in 100% DMSO and are serially diluted 3-fold in a polypropylene 96-well microtiter plate (drug plate). HI control and LO control wells contain only DMSO. One microliter of test compound from the drug plate followed by 10 μL of LPS are transferred to the cell plate. The treated cells are induced to synthesize and secrete TNF-α at 37° C. for 3 h. Forty microliters of conditioned media are transferred to a 96-well polypropylene plate containing 110 μL of ECL buffer (50 mM Tris-HCl pH 8.0, 100 mM NaCl, 0.05% Tween 20, 0.05% NaN3 and 1% FBS) supplemented with 0.44 nM MAB610 monoclonal Ab (R&D Systems), 0.34 nM ruthenylated AF210NA polyclonal Ab (R&D Systems) and 44 μg/mL sheep anti-mouse M280 Dynabeads (Dynal). After a 2 h incubation at RT with shaking, the reaction is read on the ECL M8 Instrument (IGEN Inc.). A low voltage is applied to the ruthenylated TNF-α immune complexes, which in the presence of TPA (the active component in Origlo), results in a cyclical redox reaction generating light at […]. The amount of secreted TNF-α in the presence of compound compared with that in the presence of DMSO vehicle alone (HI control) is calculated using the formula: % control (POC)=(cpd−average LO)/(average HI−average LO)*100. Data (consisting of POC and inhibitor concentration in μM) is fitted to a 4-parameter equation (y=A+((B−A)/(I+((x/C)ˆD))), where A is the minimum y (POC) value, B is the maximum y (POC), C is the x (cpd concentration) at the point of inflection and D is the slope factor) using a Levenburg-Marquardt non-linear regression algorithm.

Structure (SMILES)	IC50 [µM]
CC(O)c1cc2c(nc1-c1ccccc1)N(c1ccnc(NCCc3ccccc3)n1)CCC2 (stereo not shown) [Example 73, 1-(8-(2-(Phenethylamino)pyrimidin-4-yl)-2-phenyl-5,6,7,8-tetrahydro-1,8-naphthyridin-3-yl)ethanol]	≤ 20
N[C@H]1CC[C@H](Nc2nccc(N3CCOc4cnc(-c5ccccc5)nc43)n2)CC1 [Example 102, (1R,4R)-N^1-(4-(2-Phenyl-6,7-dihydropyrimido[5,4-b][1,4]oxazin-8-yl)pyrimidin-2-yl)cyclohexane-1,4-diamine]	≤ 20
CC(=O)c1cc2c(nc1-c1ccccc1)N(c1ccnc(NCCc3ccccc3)n1)CCC2 [Example 72, 1-(8-(2-(Phenethylamino)pyrimidin-4-yl)-2-phenyl-5,6,7,8-tetrahydro-1,8-naphthyridin-3-yl)ethanone]	≤ 20
CC(Cc1cccc(CN)c1)Nc1nccc(N2CCCc3cnc(-c4ccccc4)cc32)n1 (stereo not shown) [Example 5, N-(1-(3-(Aminomethyl)phenyl)propan-2-yl)-4-(7-phenyl-3,4-dihydro-1,6-naphthyridin-1(2H)-yl)pyrimidin-2-amine]	≤ 20
NC1CCC(Nc2nccc(N3CCCc4cnc(-c5ccccc5)cc43)n2)CC1 [Example 34, (1R,4R)-N^1-(4-(7-Phenyl-3,4-dihydro-1,6-naphthyridin-1(2H)-yl)pyrimidin-2-yl)cyclohexane-1,4-diamine]	≤ 20
Fc1cnc(NC2CCNCC2)nc1N1CCCc2cnc(-c3ccccc3)cc21 [Example 25, 5-Fluoro-4-(7-phenyl-3,4-dihydro-1,6-naphthyridin-1(2H)-yl)-N-(piperidin-4-yl)pyrimidin-2-amine]	≤ 20
OCc1cc(-c2ccccc2)nc2c1CCCN2c1ccnc(NCCc2ccccc2)n1 [Example 86, (8-(2-(Phenethylamino)pyrimidin-4-yl)-2-phenyl-5,6,7,8-tetrahydro-1,8-naphthyridin-4-yl)methanol]	≤ 20
CC(C)NC1CCC(Nc2nccc(N3CCCc4cnc(-c5ccccc5)cc43)n2)CC1 [Example 37, (1R,4R)-N^1-Isopropyl-N^4-(4-(7-phenyl-3,4-dihydro-1,6-naphthyridin-1(2H)-yl)-pyrimidin-2-yl)cyclohexane-1,4-diamine]	≤ 20
CNCc1cc2c(nc1-c1ccccc1)N(c1ccnc(NCCc3ccccc3)n1)CCC2 [Example 70, 4-(6-((Methylamino)methyl)-7-phenyl-3,4-dihydro-1,8-naphthyridin-1(2H)-yl)-N-phenethylpyrimidin-2-amine]	≤ 20
CC(=O)NC1CCC(Nc2nccc(N3CCCc4cnc(-c5ccccc5)cc43)n2)CC1 [Example 35, N-((1R,4R)-4-(4-(7-Phenyl-3,4-dihydro-1,6-naphthyridin-1(2H)-yl)pyrimidin-2-ylamino)cyclohexyl)acetamide]	≤ 20
CC(C)(CN)Nc1nccc(N2CCCc3cnc(-c4ccccc4)cc32)n1 [Example 41, N-(1-Amino-2-methylpropan-2-yl)-4-(7-phenyl-3,4-dihydro-1,6-naphthyridin-1(2H)-yl)pyrimidin-2-amine]	≤ 20
CC(Cc1cccc(CN)c1)Nc1nccc(N2CCCc3cc(CO)c(-c4ccccc4)nc32)n1 (stereo not shown) [Example 80, (8-(2-(1-(3-(Aminomethyl)phenyl)propan-2-ylamino)pyrimidin-4-yl)-2-phenyl-5,6,7,8-tetrahydro-1,8-naphthyridin-3-yl)methanol]	≤ 20
COCc1cc2c(nc1-c1ccccc1)N(c1ccnc(NCCc3ccccc3)n1)CCC2 [Example 68, 4-(6-(Methoxymethyl)-7-phenyl-3,4-dihydro-1,8-naphthyridin-1(2H)-yl)-N-phenethylpyrimidin-2-amine]	≤ 20
CC(C)(C)OC(=O)N1CCC(Nc2ncc(F)c(N3CCCc4cnc(-c5ccccc5)cc43)n2)CC1 [Example 24]	≤ 20
O=C(O)c1cc2c(nc1-c1ccccc1)N(c1ccnc(NCCc3ccccc3)n1)CCC2 [Example 69, 8-(2-(Phenethylamino)pyrimidin-4-yl)-2-phenyl-5,6,7,8-tetrahydro-1,8-naphthyridine-3-carboxylic acid]	≤ 20
CN(C)Cc1cc2c(nc1-c1ccccc1)N(c1ccnc(NCCc3ccccc3)n1)CCC2 [Example 71, 4-(6-((Dimethylamino)methyl)-7-phenyl-3,4-dihydro-1,8-naphthyridin-1(2H)-yl)-N-phenethylpyrimidin-2-amine]	≤ 20

Structure (SMILES)	IC50 [µM]
CCNCCC(=O)N1CCC(Nc2nccc(N3CCCc4cnc(-c5ccccc5)cc43)n2)CC1 [Example 16, 3-(Ethylamino)-1-(4(4-(7-phenyl-3,4-dihydro-1,6-naphthyridin-1(2H)-yl)pyrimidin-2-ylamino)piperdin-1-yl)propan-1-one]	≤ 20
CCOC(=O)N1CCC(Nc2nccc(N3CCCc4ccc(-c5ccccc5)nc43)n2)CC1 [Example 87, Ethyl-4-(4-(7-phenyl-3,4-dihydro-1,8-naphthyridin-1(2H)-yl)pyrimidin-2-ylamino)-piperidine-1-carboxylate]	≤ 20
Nc1cc2c(nc1-c1ccccc1)N(c1ccnc(NCCc3ccccc3)n1)CCC2 [Example 81, 8-(2-(Phenethylamino)pyrimidin-4-yl)-2-phenyl-5,6,7,8-tetrahydro-1,8-naphthyridin-3-amine]	≤ 20
C[C@@H](Cc1cccc(C(C)(C)N)c1)Nc1nccc(N2CCCc3ncc(-c4ccccc4)cc32)n1 [Example 29, (S)-N-(1-(3-(2-Aminopropan-2-yl)phenyl)propan-2-yl)-4-(7-phenyl-3,4-dihydro-1,5-naphthyridin-1(2H)-yl)pyrimidin-2-amine]	≤ 20
C[C@@H](Cc1cccc([C@@H](C)N)c1)Nc1nccc(N2CCOc3cnc(-c4ccccc4)nc32)n1 [Example 100, N-((S)-1-(3-((R)-1-Aminoethyl)phenyl)propan-2-yl)-4-(2-phenyl-6,7-dihydropyrimido[5,4-b][1,4]oxazin-8-yl)pyrimidin-2-amine]	≤ 20
CN(C)CC(C)(C)CNc1nccc(N2CCCc3ccc(-c4ccccc4)nc32)n1 [Example 51, N-(3-(Dimethylamino)-2,2-dimethylpropyl)-4-(7-phenyl-3,4-dihydro-1,8-naphthyridin-1(2H)-yl)pyrimidin-2-amine]	≤ 20
NCC(=O)N1CCC(Nc2nccc(N3CCCc4cnc(-c5ccccc5)cc43)n2)CC1 [Example 13, 2-Amino-1-(4(4-(7-phenyl-3,4-dihydro-1,6-naphthyridin-1(2H)-yl)pyrimidin-2-yl-amino)piperdin-1-yl)ethanone]	≤ 20
CC(=O)N1CCC(Nc2nccc(N3CCCc4ncc(-c5ccccc5)cc43)n2)CC1 [Example 32, 1-(4-(4-(7-Phenyl-3,4-dihydro-1,5-naphthyridin-1(2H)-yl)pyrimidin-2-ylamino)-piperidin-1-yl)ethanone]	≤ 20
N[C@H]1CC[C@H](Nc2nccc(N3CCCc4cc(CO)c(-c5ccccc5)nc43)n2)CC1 [Example 76, (8-(2-((1R,4R)-4-Aminocyclohexylamino)pyrimidin-4-yl)-2-phenyl-5,6,7,8-tetrahydro-1,8-naphthyridin-3-yl)methanol]	≤ 20
CC(=O)N1CCC(Nc2ncc(F)c(N3CCCc4cnc(-c5ccccc5)cc43)n2)CC1 [Example 26, 1-(4-(5-Fluoro-4-(7-phenyl-3,4-dihydro-1,6-naphthyridin-1(2H)-yl)pyrimidin-2-yl-amino)piperidin-1-yl)ethanone]	≤ 20
CC(=O)N1CCC(Nc2nccc(N3CCCc4cnc(-c5ccccc5)cc43)n2)CC1 [Example 9, 1-(4-(4-(7-Phenyl-3,4-dihydro-1,6-naphthyridin-1(2H)-yl)pyrimidin-2-ylamino)-piperidin-1-yl)ethanone]	≤ 20
c1ccc(CCNc2nccc(N3CCCc4cnc(-c5ccccc5)cc43)n2)cc1 [Example 3, N-Phenethyl-4-(7-phenyl-3,4-dihydro-1,6-naphthyridin-1(2H)-yl)pyrimidin-2-amine]	≤ 20
NC1CCC(Nc2nccc(N3CCCc4ccc(-c5ccccc5)nc43)n2)CC1 [Example 88, (1R,4R)-N^1-(4-(7-Phenyl-3,4-dihydro-1,8-naphthyridin-1(2H)-ylpyrimidin-2-yl)-cyclohexane-1,4-diamine]	≤ 20
O=C(CC(F)(F)F)NC1CCC(Nc2nccc(N3CCCc4cnc(-c5ccccc5)cc43)n2)CC1 [Example 36, 3,3,3-Trifluoro-N-((1R,4R)-4-(4-(7-phenyl-3,4-dihydro-1,6-naphthyridin-1(2H)-yl)-pyrimidin-2-ylamino)cyclohexyl)propanamide]	≤ 20
CC(C)(C)OC(=O)N1CCC(Nc2nccc(N3CCCc4ccc(-c5ccccc5)nc43)n2)CC1 [Example 54, tert-Butyl 4-(4-(7-phenyl-3,4-dihydro-1,8-naphthyridin-1(2H)-yl)pyrimidin-2-yl-amino)piperidine-1-carboxylate]	≤ 20
